From patent publication US20250346592A1 (Celgene Corporation, priority 2022, published 2025)

Molecular target: hPAD4 enzyme (Homo sapiens (Human), UniProt Q9UM07)
Assay: RFMS2 assay (RapidFire mass spectrometry, TSTGGRQGSHH peptide substrate)
Format: biochemical
Conditions: 35 nM recombinant human PAD4, 500 μM TSTGGRQGSHH peptide, 30 minutes at room temperature; read-out: RFMS 2 IC50
Procedure, shortened: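 IC50 derived from RapidFire LC-MS/MS (positive ESI MRM) of substrate versus product after a 30 min room-temperature reaction stopped with 10% formic acid. Reaction contained 35 nM human PAD4, 500 μM peptide, 2 mM CaCl2, 5 mM DTT at pH 7.4, and compounds diluted 3-fold from 20 μM.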

hPAD4 enzyme, sequence (Q9UM07 whole entry): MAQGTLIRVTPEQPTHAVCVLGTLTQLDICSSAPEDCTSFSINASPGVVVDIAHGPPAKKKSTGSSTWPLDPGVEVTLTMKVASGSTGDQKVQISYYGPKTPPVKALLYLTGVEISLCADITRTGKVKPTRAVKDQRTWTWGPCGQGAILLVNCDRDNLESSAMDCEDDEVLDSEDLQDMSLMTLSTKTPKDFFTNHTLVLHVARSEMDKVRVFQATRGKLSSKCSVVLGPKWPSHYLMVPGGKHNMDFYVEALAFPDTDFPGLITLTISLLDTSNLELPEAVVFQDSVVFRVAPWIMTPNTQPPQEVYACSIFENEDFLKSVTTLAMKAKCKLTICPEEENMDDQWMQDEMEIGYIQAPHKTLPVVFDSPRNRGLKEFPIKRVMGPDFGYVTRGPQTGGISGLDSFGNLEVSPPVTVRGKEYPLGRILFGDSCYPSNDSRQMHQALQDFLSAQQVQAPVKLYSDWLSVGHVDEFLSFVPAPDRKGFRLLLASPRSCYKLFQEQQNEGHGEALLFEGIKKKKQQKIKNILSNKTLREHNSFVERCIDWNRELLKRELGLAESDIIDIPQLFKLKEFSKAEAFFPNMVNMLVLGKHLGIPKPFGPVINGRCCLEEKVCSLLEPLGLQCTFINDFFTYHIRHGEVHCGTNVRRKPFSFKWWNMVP

SMILES	IC50
Cc1ncnn1CCOc1cccc2cc(-c3nc4cc5c(cc4n3C)CCN(C[C@H](N)CF)C5=O)n(CC3CC3)c12 [Example 163, (S)-6-(2-amino-3-fluoropropyl)-2-(1-(cyclopropylmethyl)-7-(2-(5-methyl-1H-1,2,4-triazol-1-yl)ethoxy)-1H-indol-2-yl)-1-methyl-1,6,7,8-tetrahydro-5H-imidazo[4,5-g]isoquinolin-5-one]	101 to 500 nM
Cn1c(-c2cc3cccc(OCc4nnco4)c3n2CC2CC2)nc2cc3c(cc21)CCN(C[C@H](N)CF)C3=O [Example 176, (S)-2-(7-((1,3,4-oxadiazol-2-yl)methoxy)-1-(cyclopropylmethyl)-1H-indol-2-yl)-6-(2-amino-3-fluoropropyl)-1-methyl-1,6,7,8-tetrahydro-5H-imidazo[4,5-g]isoquinolin-5-one]	101 to 500 nM
C[C@@H](N)CN1CCc2cc3c(cc2C1=O)nc(-c1cc2cc(Cl)ccc2n1CC1CC1)n3C [Example 34, (R)-6-(2-aminopropyl)-2-(5-chloro-1-(cyclopropylmethyl)-1H-indol-2-yl)-1-methyl-1,6,7,8-tetrahydro-5H-imidazo[4,5-g]isoquinolin-5-one]	501 to 1000 nM
COc1cccc2cc(-c3nc4cc5c(cc4n3C)CCN(C[C@H](N)CF)C5=O)n(Cc3ccc(C#N)o3)c12 [Example 140, (S)-5-((2-(6-(2-amino-3-fluoropropyl)-1-methyl-5-oxo-5,6,7,8-tetrahydro-1H-imidazo[4,5-g]isoquinolin-2-yl)-7-methoxy-1H-indol-1-yl)methyl)furan-2-carbonitrile]	11 to 100 nM
Cn1c(-c2cc3cccc(C#N)c3n2Cc2ccno2)nc2cc3c(cc21)CCN(C[C@H](N)CF)C3=O [Example 148, (S)-2-(6-(2-amino-3-fluoropropyl)-1-methyl-5-oxo-5,6,7,8-tetrahydro-1H-imidazo[4,5-g]isoquinolin-2-yl)-1-(isoxazol-5-ylmethyl)-1H-indole-7-carbonitrile]	501 to 1000 nM
COC(=O)NC[C@@H](C)Oc1cccc2cc(-c3nc4cc5c(cc4n3C)CCN(C[C@H](N)CF)C5=O)n(CC3CC3)c12 [Example 200, methyl ((R)-2-((2-(6-((S)-2-amino-3-fluoropropyl)-1-methyl-5-oxo-5,6,7,8-tetrahydro-1H-imidazo[4,5-g]isoquinolin-2-yl)-1-(cyclopropylmethyl)-1H-indol-7-yl)oxy)propyl)carbamate]	101 to 500 nM
Cn1c(-c2cc3ccccc3n2CC2CCC2)nc2cc3c(cc21)CCN(C[C@H](N)CF)C3=O [Example 101, (S)-6-(2-amino-3-fluoropropyl)-2-(1-(cyclobutylmethyl)-1H-indol-2-yl)-1-methyl-1,6,7,8-tetrahydro-5H-imidazo[4,5-g]isoquinolin-5-one]	101 to 500 nM
C[C@@H](N)CN1CCc2cc3c(cc2C1=O)nc(-c1cc2ccccc2n1CCC1CC1)n3C [Example 77, (R)-6-(2-aminopropyl)-2-(1-(2-cyclopropylethyl)-1H-indol-2-yl)-1-methyl-1,6,7,8-tetrahydro-5H-imidazo[4,5-g]isoquinolin-5-one]	101 to 500 nM
Cn1c(-c2cc3ccc(C(C)(C)C)cc3n2CC2CC2)nc2cc3c(cc21)CCN(C[C@H](N)CF)C3=O [Example 55, (S)-6-(2-amino-3-fluoropropyl)-2-(6-(tert-butyl)-1-(cyclopropylmethyl)-1H-indol-2-yl)-1-methyl-1,6,7,8-tetrahydro-5H-imidazo[4,5-g]isoquinolin-5-one]	501 to 1000 nM
CCn1c(-c2nc3cc4c(cc3n2C)CCN(C[C@H](N)CF)C4=O)cc2ccc(OC)nc21 [Example 108, (S)-6-(2-amino-3-fluoropropyl)-2-(1-ethyl-6-methoxy-1H-pyrrolo[2,3-b]pyridin-2-yl)-1-methyl-1,6,7,8-tetrahydro-5H-imidazo[4,5-g]isoquinolin-5-one]	501 to 1000 nM
COc1nccc2cc(-c3nc4cc5c(cc4n3C)CCN(C[C@H](N)CF)C5=O)n(CC3CC3)c12 [Example 54, (S)-6-(2-amino-3-fluoropropyl)-2-(1-(cyclopropylmethyl)-7-methoxy-1H-pyrrolo[2,3-c]pyridin-2-yl)-1-methyl-1,6,7,8-tetrahydro-5H-imidazo[4,5-g]isoquinolin-5-one]	501 to 1000 nM
Cc1cccc2cc(-c3nc4cc5c(cc4n3C)CCN(C[C@@H](C)N)C5=O)n(CC3CCC3)c12 [Example 89, (R)-6-(2-aminopropyl)-2-(1-(cyclobutylmethyl)-7-methyl-1H-indol-2-yl)-1-methyl-1,6,7,8-tetrahydro-5H-imidazo[4,5-g]isoquinolin-5-one]	101 to 500 nM

Next, values leading:

IC50	SMILES
101 to 500 nM	Cn1c(-c2cc3cccc(OC[C@H](O)C(F)(F)F)c3n2CC2CC2)nc2cc3c(cc21)CCN(C[C@H](N)CF)C3=O [Example 216, 6-((S)-2-amino-3-fluoropropyl)-2-(1-(cyclopropylmethyl)-7-((S)-3,3,3-trifluoro-2-hydroxypropoxy)-1H-indol-2-yl)-1-methyl-1,6,7,8-tetrahydro-5H-imidazo[4,5-g]isoquinolin-5-one]
101 to 500 nM	C[C@@H](N)CN1CCc2cc3c(cc2C1=O)nc(-c1cc2cccc(Cl)c2n1CC1CC1)n3C [Example 33, (R)-6-(2-aminopropyl)-2-(7-chloro-1-(cyclopropylmethyl)-1H-indol-2-yl)-1-methyl-1,6,7,8-tetrahydro-5H-imidazo[4,5-g]isoquinolin-5-one]
101 to 500 nM	Cc1ccc2cc(-c3nc4cc5c(cc4n3C)CCN(C[C@@H](C)N)C5=O)n(CC3CC3)c2c1 [Example 29, (R)-6-(2-aminopropyl)-2-(1-(cyclopropylmethyl)-6-methyl-1H-indol-2-yl)-1-methyl-1,6,7,8-tetrahydro-5H-imidazo[4,5-g]isoquinolin-5-one]
101 to 500 nM	CC(C)c1ccc2cc(-c3nc4cc5c(cc4n3C)CCN(C[C@H](N)CF)C5=O)n(CC3CC3)c2c1 [Example 51, (S)-6-(2-amino-3-fluoropropyl)-2-(1-(cyclopropylmethyl)-6-isopropyl-1H-indol-2-yl)-1-methyl-1,6,7,8-tetrahydro-5H-imidazo[4,5-g]isoquinolin-5-one]
101 to 500 nM	COc1cccc2cc(-c3nc4cc5c(cc4n3C)CCN(C[C@H](N)CF)C5=O)n(Cc3ccoc3)c12 [Example 138, (S)-6-(2-amino-3-fluoropropyl)-2-(1-(furan-3-ylmethyl)-7-methoxy-1H-indol-2-yl)-1-methyl-1,6,7,8-tetrahydro-5H-imidazo[4,5-g]isoquinolin-5-one]
501 to 1000 nM	Cn1c(-c2cc3cccc(OC[C@@H]4CNCCO4)c3n2CC2CC2)nc2cc3c(cc21)CCN(C[C@H](N)CF)C3=O [Example 159, 6-((S)-2-amino-3-fluoropropyl)-2-(1-(cyclopropyl-methyl)-7-(((S)-morpholin-2-yl)methoxy)-1H-indol-2-yl)-1-methyl-1,6,7,8-tetrahydro-5H-imidazo[4,5-g] isoquinolin-5-one]
101 to 500 nM	COc1cccc2cc(-c3nc4cc5c(cc4n3C)CCN(C[C@H](N)CF)C5=O)n(Cc3oncc3C)c12 [Example 139, (S)-6-(2-amino-3-fluoropropyl)-2-(7-methoxy-1-((4-methylisoxazol-5-yl)methyl)-1H-indol-2-yl)-1-methyl-1,6,7,8-tetrahydro-5H-imidazo[4,5-g]isoquinolin-5-one]
